Results: US8937091B2 (Japan Science and Technology Agency, priority 2009, dated 2015)

What was measured:
[1] = test system: IICR (IP3 induced calcium release) in CHO cells; assay: Assay of IICR (IP3 induced calcium release)-inhibiting action; assay type: cell-based, Chinese hamster; conditions: Cricetulus griseus, CHO; for inhibition at 10 µM: test compound 10 μmol; for inhibition at 10 µM / inhibition at 30 µM / inhibition at 100 µM: CHO cells, 10 μM ATP, read-out: IICR level (percentage of inhibition); for inhibition at 30 µM: test compound 30 μmol; for inhibition at 100 µM: test compound 100 μmol; for IC50: Table 1
Method: The extracellular fluid (i.e., medium) of cultured CHO cells was replaced by BSS containing calcium. One minute later, a test compound was added. Two minutes later, 10 μM ATP was added. The IICR-inhibiting action levels at different compound concentrations after the addition of ATP were determined as the percentage of inhibition (%) by evaluating the influence of the compound on the degree of increase in the intracellular calcium concentration.
(§1) Hereafter, the numerals in parentheses written after the TG level, the SOCE level, and the IICR level correspond to the test compound concentrations. The number following the name of each title compound used in the Examples below represents a compound ID number designated arbitrarily by the present inventors.

[2] = test system: SOCE (store operated calcium entry) in CHO cells; assay: Assay of SOCE (store operated calcium entry)-inhibiting action; assay type: cell-based, Chinese hamster; conditions: Cricetulus griseus, CHO; for inhibition at 10 µM: test compound 10 μmol; for inhibition at 10 µM / inhibition at 30 µM / inhibition at 100 µM: CHO cells, thapsigargin, read-out: SOCE level (percentage of inhibition); for inhibition at 30 µM: test compound 30 μmol; for inhibition at 100 µM: test compound 100 μmol; for IC50: Table 1
Method: The extracellular fluid (i.e., medium) of cultured Chinese hamster ovary (CHO) cells was replaced by BSS containing no calcium. One minute later, a test compound was added. Two minutes later, 1 μM thapsigargin was added to cause depletion of the intracellular calcium store. Nine minutes later, calcium chloride (final concentration: 2 mM) was added to the extracellular fluid. The SOCE-inhibiting action levels at different compound concentrations after the addition of calcium chloride were determined as the percentage of inhibition (%) by evaluating the influence of the compound on the degree of increase in the intracellular calcium concentration.
as §1

Structure (SMILES) | inhibition at 10 µM [1] | inhibition at 30 µM [1] | inhibition at 100 µM [1] | inhibition at 10 µM [2] | inhibition at 30 µM [2] | inhibition at 100 µM [2] | IC50 [1] | IC50 [2]
CCCCN(CCO)CCC(=O)c1ccc(Oc2ccccc2)cc1 [Example 114, 2-(N-hydroxyethylbutyl)aminoethyl-4-phenoxyphenylketone] | 70% | 100% | 30% | 0% | 10% | 40% |  | 
O=C(CCN1CCN(C(=O)c2ccco2)CC1)c1ccc(Oc2ccccc2)cc1 [Example 115, 2-(N-furoylpiperazyl)aminoethyl-4-phenoxyphenylketone] | 20% | 20% | 20% | 0% | 0% | 30% |  | 
CCN(CC)CCC(=O)c1ccc(Oc2ccccc2)cc1 [Example 116, 2-(N-diethyl)aminoethyl-4-phenoxyphenylketone] | 20% | 20% | 70% | 0% | 0% | 20% |  | 
CC(C)N(CCC(=O)c1cnccn1)Cc1ccccc1 [Example 117, 2-(N-isopropylbenzyl)aminoethyl-2-pyrazylketone] | 20% | 50% | 90% | 0% | 0% | 0% | 30 µM | > 100 µM
NCCCCNCCC(=O)c1ccc2ccccc2c1 [Example 118, 2-(N-aminobutyl)aminoethyl-2-naphthylketone] | 0% | 0% | 0% | 0% | 0% | 0% |  | 
NCCCNCCCCNCCC(=O)c1ccc2ccccc2c1 [Example 119, 2-(N-aminopropylaminobutyl)aminoethyl-2-naphthylketone] | 0% | 0% | 0% | 0% | 0% | 0% |  | 
CC(C)N(CCC(=O)c1nccs1)Cc1ccccc1 [Example 120, 2-(N-isopropylbenzyl)aminoethyl-2-thiazolylketone] | 10% | 90% | 100% | 0% | 0% | 20% |  | 
CC(C)(C)N(CCC(=O)c1ccco1)Cc1ccccc1 [Example 121, 2-(N-t-butylbenzyl)aminoethyl-2-furylketone] | 10% | 50% | 100% | 0% | 0% | 0% | 30 µM | > 100 µM
CC(C)(C)N(CCO)CCC(=O)c1nccs1 [Example 122, 2-(N-t-butylhydroxyethyl)aminoethyl-2-thiazolylketone] | 0% | 0% | 0% | 0% | 0% | 0% |  | 
CC(C)(C)N(CCO)CCC(=O)c1ccco1 [Example 123, 2-(N-t-butylhydroxyethyl)aminoethyl-2-furylketone] | 20% | 20% | 70% | 0% | 10% | 20% |  | 
O=C(CCN(CCO)Cc1ccccc1)c1ccco1 [Example 124, 2-(N-hydroxyethylbenzyl)aminoethyl-2-furylketone] | 20% | 20% | 70% | 0% | 0% | 0% |  | 
CN(CCC(=O)c1cccs1)Cc1ccccc1 [Example 125, 2-(N-methylbenzyl)aminoethyl-2-thiophenylketone] | 0% | 30% | 70% | 0% | 0% | 0% |  | 
CN(CCO)CCC(=O)c1cccs1 [Example 126, 2-(N-methylhydroxyethyl)aminoethyl-2-thiophenylketone] | 20% | 20% | 70% | 0% | 0% | 0% |  | 
